Results from patent US20240140951A1, “IMIDAZOPYRIDAZINE DERIVATIVES AS IL-17 MODULATORS” (UCB Biopharma SRL, priority 2020, published 2024).

Target: T1, IL-17A (Homo sapiens, UniProt Q16552)
T1 sequence (Q16552 24-155): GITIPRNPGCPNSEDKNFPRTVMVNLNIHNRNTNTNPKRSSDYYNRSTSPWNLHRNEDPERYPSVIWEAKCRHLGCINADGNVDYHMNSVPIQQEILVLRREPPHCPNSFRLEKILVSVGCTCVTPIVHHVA
Assay: Inhibition of IL-17A induced IL-6 release from dermal fibroblast cell line (HDF cell line assay)
Format: cell-based
Conditions: HDF cells stimulated with IL-17A 50 pM + TNF-α 25 pM; IL-6 release measured by HTRF
Description: Inhibition of IL-17A Induced IL-6 Release from Dermal Fibroblast Cell Line
The purpose of this assay is to test the neutralising ability to IL-17 proteins, in a human primary cell system. Stimulation of normal human dermal fibroblasts (HDF) with IL-17 alone produces only a very weak signal but in combination with certain other cytokines, such as TNFα, a synergistic effect can be seen in the production of inflammatory cytokines, i.e. IL-6.
HDFs were stimulated with IL-17A (50 pM) in combination with TNF-α (25 pM). The resultant IL-6 response was then measured using a homogenous time-resolved FRET kit from Cisbio. The kit utilises two monoclonal antibodies, one labelled with Eu-Cryptate (Donor) and the second with d2 or XL665 (Acceptor). The intensity of the signal is proportional to the concentration of IL-6 present in the sample (Ratio is calculated by 665/620×104).
The ability of a compound to inhibit IL-17 induced IL-6 release from human dermal fibroblasts is measured in this assay.
HDF cells (Sigma #106-05n) were cultured in complete media (DMEM+10% FCS+2 mM L-glutamine) and maintained in a tissue culture flask using standard techniques. Cells were harvested from the tissue culture flask on the morning of the assay using TrypLE (Invitrogen #12605036). The TrypLE was neutralised using complete medium (45 mL) and the cells were centrifuged at 300×g for 3 minutes. The cells were re-suspended in complete media (5 mL) counted and adjusted to a concentration of 3.125×10^4 cells/mL before being added to the 384 well assay plate (Corning #3701) at 40 μL per well. The cells were left for a minimum of three hours, at 37° C./5% CO2, to adhere to the plate.
Compounds were serially diluted in DMSO before receiving an aqueous dilution into a 384 well dilution plate (Greiner #781281), where 5 μL from the titration plate was transferred to 45 μL of complete media and mixed to give a solution containing 10% DMSO.
Mixtures of TNFα and IL-17 cytokine were prepared in complete media to final concentrations of TNFα 25 pM/IL-17A 50 pM, then 30 μL of the solution was added to a 384 well reagent plate (Greiner #781281).
L from the aqueous dilution plate was transferred to the reagent plate containing 30 μL of the diluted cytokines, to give a 2.5% DMSO solution. The compounds were incubated with the cytokine mixtures for 5 h at 37° C. After the incubation, 10 μL was transferred to the assay plate, to give a 0.5% DMSO solution, then incubated for 18-20 h at 37° C./5% CO2.
From the Cisbio IL-6 FRET kit (Cisbio #62IL6PEB) europium cryptate and Alexa 665 were diluted in reconstitution buffer and mixed 1:1, as per kit insert. To a white low volume 384 well plate (Greiner #784075) were added FRET reagents (10 μL), then supernatant (10 μL) was transferred from the assay plate to Greiner reagent plate. The mixture was incubated at room temperature for 3 h with gentle shaking (<400 rpm) before being read on a Synergy Neo 2 plate reader (Excitation: 330 nm; Emission: […]).

Row | IC50 [µM] | SMILES
1 | 0.316 | Cc1nonc1C(=O)NC(c1cn2ncc(C(CC(F)F)C(=O)NCC(F)(F)F)cc2n1)C(C1CC1)C1CC1 (stereo not shown) [Example 11, N-(2,2-Dicyclopropyl-1-{7-[3,3-difluoro-1-(2,2,2-trifluoroethylcarbamoyl)propyl]-imidazo[1,2-b]pyridazin-2-yl}ethyl)-4-methyl-1,2,5-oxadiazole-3-carboxamide]
2 | 0.0631 | Cc1nonc1C(=O)N[C@H](c1cn2ncc(C3(C(=O)NCC(C)(F)F)CCOCC3)cc2n1)C1CCC(F)(F)CC1 [Example 14, N-[(S)-(4,4-Difluorocyclohexyl){7-[4-(2,2-difluoropropylcarbamoyl)tetrahydropyran-4-yl]imidazo[1,2-b]pyridazin-2-yl}methyl]-4-methyl-1,2,5-oxadiazole-3-carboxamide]
3 | 0.0631 | Cc1nonc1C(=O)N[C@H](c1cn2ncc(C3(C(=O)NCC(F)(F)F)CCC(F)(F)CC3)cc2n1)C1CCC(F)(F)CC1 [Example 9, N-[(S)-(4,4-Difluorocyclohexyl){7-[4,4-difluoro-1-(2,2,2-trifluoroethylcarbamoyl)-cyclohexyl]imidazo[1,2-b]pyridazin-2-yl}methyl]-4-methyl-1,2,5-oxadiazole-3-carboxamide]
4 | 0.00631 | CC(F)(F)CNC(=O)C1(c2cnn3cc([C@@H](NC(=O)c4nonc4C4CC4)C4CCC(F)(F)CC4)nc3c2)CCOCC1 [Example 17, 4-Cyclopropyl-N-[(S)-(4,4-difluorocyclohexyl){7-[4-(2,2-difluoropropylcarbamoyl)-tetrahydropyran-4-yl]imidazo[1,2-b]pyridazin-2-yl}methyl]-1,2,5-oxadiazole-3-carboxamide]
5 | 0.0398 | Cc1nonc1C(=O)N[C@H](c1cn2ncc(C(CC(F)F)C(=O)NCC(F)(F)F)cc2n1)C1CCC(F)(F)CC1 (stereo partly drawn) [Example 1, N-[(S)-(4,4-Difluorocyclohexyl){7-[3,3-difluoro-1-(2,2,2-trifluoroethylcarbamoyl)-propyl]imidazo[1,2-b]pyridazin-2-yl}methyl]-4-methyl-1,2,5-oxadiazole-3-carboxamide]
6 | 0.158 | CC(C)n1ncnc1C(=O)N[C@H](c1cn2ncc(C(CC(F)F)C(=O)NCC(F)(F)F)cc2n1)C1CCC(F)(F)CC1 (stereo partly drawn) [Example 8, N-[(S)-(4,4-Difluorocyclohexyl){7-[3,3-difluoro-1-(2,2,2-trifluoroethylcarbamoyl)-propyl]imidazo[1,2-b]pyridazin-2-yl}methyl]-2-isopropyl-1,2,4-triazole-3-carboxamide]
7 | 0.0251 | Cc1nonc1C(=O)N[C@H](c1cn2ncc(C3CC(F)(F)CCN3C(=O)C34CC(F)(C3)C4)cc2n1)C1CCC(F)(F)CC1 (single isomer, unassigned) [Example 16]
8 | 0.0251 | CC(C)n1nccc1C(=O)N[C@H](c1cn2ncc(C(CC(F)F)C(=O)NCC(F)(F)F)cc2n1)C1CCC(F)(F)CC1 (stereo partly drawn) [Example 7, N-[(S)-(4,4-Difluorocyclohexyl){7-[3,3-difluoro-1-(2,2,2-trifluoroethylcarbamoyl)-propyl]imidazo[1,2-b]pyridazin-2-yl}methyl]-2-isopropylpyrazole-3-carboxamide]
9 | 0.0251 | Cc1nonc1C(=O)N[C@H](c1cn2ncc(C3CN(C4COC4)CC3C(=O)N3CC(F)(F)C(F)(F)C3)cc2n1)C1CCC(F)(F)CC1 (single isomer, unassigned) [Example 13]
10 | 0.02 | CCc1nonc1C(=O)N[C@H](c1cn2ncc(C(CC(F)F)C(=O)NCC(F)(F)F)cc2n1)C1CCC(F)(F)CC1 (stereo partly drawn) [Example 5, N-[(S)-(4,4-Difluorocyclohexyl){7-[3,3-difluoro-1-(2,2,2-trifluoroethylcarbamoyl)-propyl]imidazo[1,2-b]pyridazin-2-yl}methyl]-4-ethyl-1,2,5-oxadiazole-3-carboxamide]
11 | 0.02 | Cc1nonc1C(=O)N[C@H](c1cn2ncc(C(CC(F)F)c3nnnn3CC(F)(F)F)cc2n1)C1CCC(F)(F)CC1 (single isomer, unassigned) [Example 15, N-[(S)-(4,4-Difluorocyclohexyl)(7-{(1S*)-3,3-difluoro-1-[1-(2,2,2-trifluoroethyl)tetrazol-5-yl]propyl}imidazo[1,2-b]pyridazin-2-yl)methyl]-4-methyl-1,2,5-oxadiazole-3-carboxamide]
12 | 0.01 | CNC(=O)[C@H](NC(=O)C(CC(F)F)c1cnn2cc([C@@H](NC(=O)c3nonc3C)C3CCC(F)(F)CC3)nc2c1)C(C)C (stereo partly drawn) [Example 2, N-{(S)-(4,4-difluorocyclohexyl)[7-(3,3-difluoro-1-{[(1R)-2-methyl-1-(methylcarbamoyl)-propyl]carbamoyl}propyl)imidazo[1,2-b]pyridazin-2-yl]methyl}-4-methyl-1,2,5-oxadiazole-3-carboxamide]
13 | 0.0316 | Cc1nonc1C(=O)N[C@H](c1cn2ncc(C(CC(F)F)c3nnc4ccc(F)cn34)cc2n1)C1CCC(F)(F)CC1 (single isomer, unassigned) [Example 12]
